Laboratory results published in paper PMC4279406, “Simultaneous targeting of PI3Kδ and a PI3Kδ-dependent MEK1/2-Erk1/2 pathway for therapy in pediatric B-cell acute lymphoblastic leukemia” (Oncotarget, 2014).

Key:
Assay in all cases: KinaseProfiler protein kinase activity
Format in all cases: biochemical
Settings in all cases: 10 μM X-370
AMPK α1 = target: T1, AMPK α1 (Homo sapiens, UniProt Q13131)
T1 construct: purchased Millipore KinaseProfiler
Procedure: (§1) In vitro kinase profile assays were analyzed by the Kinase Profiler Service (Millipore, United Kingdom) following its guidelines. A GST-tagged human p110δ and regulatory full-length p85 were co-expressed in insect cell Sf9. Recombinant protein was extracted by affinity purification. The PI3K kinase activity was determined in the increasing concentration of ATP and X-370 with PI3-Kinase HTRF™ Assay kit (Millipore) as described previously. […]
(§2) Table S1: Inhibitory activity of X-370 against protein kinases
(§3) kinome at 10 μM. The relative kianse activity left in the presence of 10 μM were shown (Mi llipore
(§4) Kinase activity (% of control) Kinase activity (% of control) Kinase activity (% of control)
(§5) CDK1/cyclinB 97 Lck activated 89 Ret 125

ASK1 = target: T2, ASK1 (Homo sapiens, UniProt Q99683)
T2 construct: purchased Millipore KinaseProfiler
Procedure: as §1, §2, §3, §4, §5

Abl = target: T3, Abl (Homo sapiens, UniProt P00519)
T3 construct: purchased Millipore KinaseProfiler
Procedure: as §1, §2, §3, §4, §5

Aurora-A = target: T4, Aurora-A (Homo sapiens, UniProt O14965)
T4 construct: purchased Millipore KinaseProfiler
Procedure: as §1, §2, §3, §4, §5

BTK = target: T5, BTK (Homo sapiens, UniProt Q06187)
T5 construct: purchased Millipore KinaseProfiler
Procedure: as §1, §2, §3, §4, §5

CDK1/cyclinB = target: T6, CDK1/cyclinB (Homo sapiens, UniProt P06493)
T6 construct: purchased Millipore KinaseProfiler
Procedure: as §1, §2, §3, §4, §5

CHK1 = target: T7, CHK1 (Homo sapiens, UniProt O14757)
T7 construct: purchased Millipore KinaseProfiler
T7 sequence (O14757 whole entry): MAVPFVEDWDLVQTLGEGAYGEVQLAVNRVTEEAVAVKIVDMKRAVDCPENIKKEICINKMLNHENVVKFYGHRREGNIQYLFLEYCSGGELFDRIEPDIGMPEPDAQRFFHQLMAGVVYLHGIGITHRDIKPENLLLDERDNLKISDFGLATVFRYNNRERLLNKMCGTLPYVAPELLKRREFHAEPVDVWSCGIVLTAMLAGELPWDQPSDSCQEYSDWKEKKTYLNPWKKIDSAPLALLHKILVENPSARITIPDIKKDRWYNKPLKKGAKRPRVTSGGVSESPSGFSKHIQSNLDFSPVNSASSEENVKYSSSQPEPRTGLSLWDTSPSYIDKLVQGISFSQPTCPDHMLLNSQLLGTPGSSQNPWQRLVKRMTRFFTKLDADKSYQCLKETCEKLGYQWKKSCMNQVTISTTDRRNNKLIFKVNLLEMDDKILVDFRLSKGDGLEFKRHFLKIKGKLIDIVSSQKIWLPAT
Procedure: as §1, §2, §3, §4, §5

CK1(y) = test system: CK1(y)
Procedure: as §1, §2, §3, §4, §5

FAK = target: T8, FAK (Homo sapiens, UniProt Q05397)
T8 construct: purchased Millipore KinaseProfiler
Procedure: as §1, §2, §3, §4, §5

Flt1 = target: T9, Flt1 (Homo sapiens, UniProt P17948)
T9 construct: purchased Millipore KinaseProfiler
Procedure: as §1, §2, §3, §4, §5

Fyn = target: T10, Fyn (Homo sapiens, UniProt P06241)
T10 construct: purchased Millipore KinaseProfiler
T10 sequence (P06241 whole entry): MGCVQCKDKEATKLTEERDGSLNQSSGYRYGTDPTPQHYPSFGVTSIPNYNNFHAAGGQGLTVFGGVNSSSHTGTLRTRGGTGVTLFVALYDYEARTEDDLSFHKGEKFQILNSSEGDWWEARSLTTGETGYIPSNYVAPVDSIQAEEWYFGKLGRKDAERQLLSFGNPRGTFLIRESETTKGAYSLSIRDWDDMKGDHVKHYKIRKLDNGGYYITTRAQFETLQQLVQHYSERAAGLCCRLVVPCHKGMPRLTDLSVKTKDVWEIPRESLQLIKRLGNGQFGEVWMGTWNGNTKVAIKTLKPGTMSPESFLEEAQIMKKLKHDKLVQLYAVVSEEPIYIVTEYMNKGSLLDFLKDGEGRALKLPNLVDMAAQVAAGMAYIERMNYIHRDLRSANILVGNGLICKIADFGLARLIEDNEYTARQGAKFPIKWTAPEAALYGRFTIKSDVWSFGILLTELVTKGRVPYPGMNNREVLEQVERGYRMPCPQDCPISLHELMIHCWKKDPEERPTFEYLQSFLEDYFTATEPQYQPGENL
Procedure: as §1, §2, §3, §4, §5

GSK3 α = target: T11, GSK3 α (Homo sapiens, UniProt P49840)
T11 construct: purchased Millipore KinaseProfiler
T11 sequence (P49840 whole entry): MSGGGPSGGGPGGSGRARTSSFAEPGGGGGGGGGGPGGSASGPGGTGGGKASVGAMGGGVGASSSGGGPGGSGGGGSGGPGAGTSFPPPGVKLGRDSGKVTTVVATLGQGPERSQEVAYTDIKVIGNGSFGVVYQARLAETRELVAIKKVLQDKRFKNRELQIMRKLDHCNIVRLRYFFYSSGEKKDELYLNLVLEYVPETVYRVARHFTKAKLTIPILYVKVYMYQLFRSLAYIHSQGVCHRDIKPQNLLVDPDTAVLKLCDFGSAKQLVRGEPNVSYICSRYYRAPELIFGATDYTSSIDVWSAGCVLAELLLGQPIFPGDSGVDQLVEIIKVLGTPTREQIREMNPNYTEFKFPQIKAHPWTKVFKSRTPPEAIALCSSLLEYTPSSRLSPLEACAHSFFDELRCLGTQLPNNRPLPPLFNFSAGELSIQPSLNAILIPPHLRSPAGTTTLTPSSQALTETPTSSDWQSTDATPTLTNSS
Procedure: as §1, §2, §3, §4, §5

IKK α = target: T12, IKK α (Homo sapiens, UniProt O15111)
T12 construct: purchased Millipore KinaseProfiler
Procedure: as §1, §2, §3, §4, §5

IR, activated = target: T13, IR, activated (Homo sapiens, UniProt P06213)
T13 construct: purchased Millipore KinaseProfiler
Procedure: as §1, §2, §3, §4, §5

Itk = target: T14, Itk (Homo sapiens, UniProt Q08881)
T14 construct: purchased Millipore KinaseProfiler
Procedure: as §1, §2, §3, §4, §5

JAK2 = target: T15, JAK2 (Homo sapiens, UniProt O60674)
T15 construct: purchased Millipore KinaseProfiler
Procedure: as §1, §2, §3, §4, §5

LKB1 = target: T16, LKB1 (Homo sapiens, UniProt Q15831)
T16 construct: purchased Millipore KinaseProfiler
Procedure: as §1, §2, §3, §4, §5

Lck activated = target: T17, Lck activated (Homo sapiens, UniProt P06239)
T17 construct: purchased Millipore KinaseProfiler
Procedure: as §1, §2, §3, §4, §5

MAPK1 = target: T18, MAPK1 (Homo sapiens, UniProt P27361)
T18 construct: purchased Millipore KinaseProfiler
Procedure: as §1, §2, §3, §4, §5

MEK1 = target: T19, MEK1 (Homo sapiens, UniProt Q02750)
T19 construct: purchased Millipore KinaseProfiler
Procedure: as §1, §2, §3, §4, §5

Met = target: T20, Met (Homo sapiens, UniProt P08581)
T20 construct: purchased Millipore KinaseProfiler
Procedure: as §1, §2, §3, §4, §5

NEK11 = target: T21, NEK11 (Homo sapiens, UniProt Q8NG66)
T21 construct: purchased Millipore KinaseProfiler
Procedure: as §1, §2, §3, §4, §5

PAK2 = target: T22, PAK2 (Homo sapiens, UniProt Q13177)
T22 construct: purchased Millipore KinaseProfiler
T22 sequence (Q13177 whole entry): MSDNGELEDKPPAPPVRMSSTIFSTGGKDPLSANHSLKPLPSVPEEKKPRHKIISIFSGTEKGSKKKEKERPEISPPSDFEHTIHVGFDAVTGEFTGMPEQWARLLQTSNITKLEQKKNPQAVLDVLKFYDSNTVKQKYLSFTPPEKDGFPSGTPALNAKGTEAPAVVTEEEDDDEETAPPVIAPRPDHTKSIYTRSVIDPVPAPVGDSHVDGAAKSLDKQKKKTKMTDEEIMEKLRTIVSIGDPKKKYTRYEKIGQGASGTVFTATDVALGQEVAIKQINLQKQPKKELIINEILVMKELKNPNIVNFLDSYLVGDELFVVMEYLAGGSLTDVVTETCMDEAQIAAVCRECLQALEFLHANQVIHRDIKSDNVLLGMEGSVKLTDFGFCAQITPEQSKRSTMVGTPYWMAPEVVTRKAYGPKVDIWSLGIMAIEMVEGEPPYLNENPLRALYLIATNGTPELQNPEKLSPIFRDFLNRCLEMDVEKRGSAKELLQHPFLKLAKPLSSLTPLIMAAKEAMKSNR
Procedure: as §1, §2, §3, §4, §5

PDK1 = target: T23, PDK1 (Homo sapiens, UniProt O15530)
T23 construct: purchased Millipore KinaseProfiler
T23 sequence (O15530 whole entry): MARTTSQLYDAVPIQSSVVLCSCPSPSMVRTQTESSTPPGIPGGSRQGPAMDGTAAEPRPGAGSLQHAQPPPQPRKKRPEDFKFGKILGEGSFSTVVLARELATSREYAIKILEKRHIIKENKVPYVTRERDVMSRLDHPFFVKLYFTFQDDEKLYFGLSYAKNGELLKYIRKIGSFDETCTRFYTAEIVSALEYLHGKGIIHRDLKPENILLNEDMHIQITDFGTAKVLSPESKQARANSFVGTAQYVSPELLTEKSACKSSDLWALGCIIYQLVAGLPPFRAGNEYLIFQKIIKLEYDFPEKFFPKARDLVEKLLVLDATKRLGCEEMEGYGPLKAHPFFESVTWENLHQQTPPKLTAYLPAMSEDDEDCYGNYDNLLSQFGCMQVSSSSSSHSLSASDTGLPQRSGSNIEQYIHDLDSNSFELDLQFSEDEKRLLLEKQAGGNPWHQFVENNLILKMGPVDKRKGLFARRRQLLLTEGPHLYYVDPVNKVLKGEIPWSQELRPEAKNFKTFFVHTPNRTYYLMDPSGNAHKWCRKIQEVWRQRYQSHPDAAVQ
Procedure: as §1, §2, §3, §4, §5

PEK = target: T24, PEK (Homo sapiens, UniProt Q9NZJ5)
T24 construct: purchased Millipore KinaseProfiler
T24 sequence (Q9NZJ5 30-1116): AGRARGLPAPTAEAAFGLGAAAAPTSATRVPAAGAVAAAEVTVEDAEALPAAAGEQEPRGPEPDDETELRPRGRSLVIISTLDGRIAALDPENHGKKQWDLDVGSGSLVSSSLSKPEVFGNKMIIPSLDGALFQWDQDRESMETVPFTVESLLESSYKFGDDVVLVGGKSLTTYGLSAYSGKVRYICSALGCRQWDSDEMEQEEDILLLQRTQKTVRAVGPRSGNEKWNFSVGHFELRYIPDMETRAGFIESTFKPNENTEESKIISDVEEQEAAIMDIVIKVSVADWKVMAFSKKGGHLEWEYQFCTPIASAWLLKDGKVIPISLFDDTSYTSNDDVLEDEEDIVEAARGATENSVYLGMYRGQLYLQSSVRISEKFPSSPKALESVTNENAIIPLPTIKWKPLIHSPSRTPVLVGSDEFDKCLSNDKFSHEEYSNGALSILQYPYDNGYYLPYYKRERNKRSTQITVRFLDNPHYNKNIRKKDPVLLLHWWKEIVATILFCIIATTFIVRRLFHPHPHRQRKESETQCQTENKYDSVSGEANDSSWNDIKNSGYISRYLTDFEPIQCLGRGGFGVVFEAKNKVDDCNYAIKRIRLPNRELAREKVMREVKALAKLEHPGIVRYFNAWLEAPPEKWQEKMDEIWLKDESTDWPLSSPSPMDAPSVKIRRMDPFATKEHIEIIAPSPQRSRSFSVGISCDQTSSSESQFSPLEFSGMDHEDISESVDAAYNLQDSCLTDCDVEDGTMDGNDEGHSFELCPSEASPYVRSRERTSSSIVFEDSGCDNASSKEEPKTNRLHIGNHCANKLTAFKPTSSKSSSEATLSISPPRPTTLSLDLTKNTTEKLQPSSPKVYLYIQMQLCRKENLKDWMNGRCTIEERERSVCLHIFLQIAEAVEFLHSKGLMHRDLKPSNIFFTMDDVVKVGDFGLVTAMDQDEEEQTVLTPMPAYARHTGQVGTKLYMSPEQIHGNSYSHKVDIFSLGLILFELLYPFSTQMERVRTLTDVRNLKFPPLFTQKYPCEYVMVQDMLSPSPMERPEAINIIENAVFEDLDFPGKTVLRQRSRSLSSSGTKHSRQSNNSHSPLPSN
Procedure: as §1, §2, §3, §4, §5

PKA = target: T25, PKA (Homo sapiens, UniProt P17612)
T25 construct: purchased Millipore KinaseProfiler
Procedure: as §1, §2, §3, §4, §5

PKC α = target: T26, PKC α (Homo sapiens, UniProt P17252)
T26 construct: purchased Millipore KinaseProfiler
Procedure: as §1, §2, §3, §4, §5

Pim-1 = target: T27, Pim-1 (Homo sapiens, UniProt P11309)
T27 construct: purchased Millipore KinaseProfiler
Procedure: as §1, §2, §3, §4, §5

Plk1 = target: T28, Plk1 (Homo sapiens, UniProt P53350)
T28 construct: purchased Millipore KinaseProfiler
Procedure: as §1, §2, §3, §4, §5

ROCK-I = target: T29, ROCK-I (Homo sapiens, UniProt Q13464)
T29 construct: purchased Millipore KinaseProfiler
Procedure: as §1, §2, §3, §4, §5

Ret = target: T30, Ret (Homo sapiens, UniProt P07949)
T30 construct: purchased Millipore KinaseProfiler
Procedure: as §1, §2, §3, §4, §5

Ron = target: T31, Ron (Homo sapiens, UniProt Q04912)
T31 construct: purchased Millipore KinaseProfiler
Procedure: as §1, §2, §3, §4, §5

Rsk1 = target: T32, Rsk1 (Homo sapiens, UniProt Q15418)
T32 construct: purchased Millipore KinaseProfiler
T32 sequence (Q15418 whole entry): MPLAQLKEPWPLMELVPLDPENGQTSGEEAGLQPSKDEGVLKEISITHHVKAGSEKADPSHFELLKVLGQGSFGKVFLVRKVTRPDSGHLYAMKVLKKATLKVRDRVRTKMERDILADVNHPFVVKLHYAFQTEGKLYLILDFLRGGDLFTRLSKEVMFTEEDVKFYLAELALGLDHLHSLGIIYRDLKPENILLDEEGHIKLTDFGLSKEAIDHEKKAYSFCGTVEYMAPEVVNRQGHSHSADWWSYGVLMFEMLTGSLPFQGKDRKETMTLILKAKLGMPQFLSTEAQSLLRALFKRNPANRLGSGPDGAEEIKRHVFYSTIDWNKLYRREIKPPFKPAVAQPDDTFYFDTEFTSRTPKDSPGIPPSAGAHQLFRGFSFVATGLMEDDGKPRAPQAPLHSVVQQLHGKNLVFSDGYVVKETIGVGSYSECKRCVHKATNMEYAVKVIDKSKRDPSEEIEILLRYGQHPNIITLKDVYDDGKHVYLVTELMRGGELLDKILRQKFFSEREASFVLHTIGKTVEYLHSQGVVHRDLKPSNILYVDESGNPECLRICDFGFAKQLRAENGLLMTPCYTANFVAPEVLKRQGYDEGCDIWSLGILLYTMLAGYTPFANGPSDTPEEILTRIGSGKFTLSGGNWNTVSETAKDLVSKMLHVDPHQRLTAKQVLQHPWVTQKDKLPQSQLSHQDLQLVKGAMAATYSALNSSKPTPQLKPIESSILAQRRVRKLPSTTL
Procedure: as §1, §2, §3, §4, §5

SAPK2a(T106M) = target: T33, SAPK2a(T106M) (Homo sapiens, UniProt Q16539, T106M)
T33 construct: purchased Millipore KinaseProfiler
T33 sequence (Q16539 whole entry T106M): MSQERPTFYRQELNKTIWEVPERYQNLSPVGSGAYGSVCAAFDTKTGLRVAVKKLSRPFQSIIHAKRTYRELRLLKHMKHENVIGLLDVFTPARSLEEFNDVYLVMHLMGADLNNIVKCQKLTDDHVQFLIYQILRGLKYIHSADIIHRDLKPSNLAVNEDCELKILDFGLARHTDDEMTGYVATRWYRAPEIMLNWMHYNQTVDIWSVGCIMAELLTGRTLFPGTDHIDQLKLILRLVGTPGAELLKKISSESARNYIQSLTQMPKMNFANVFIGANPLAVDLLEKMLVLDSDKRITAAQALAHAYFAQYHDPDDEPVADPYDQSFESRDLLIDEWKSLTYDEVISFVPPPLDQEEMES
Procedure: as §1, §2, §3, §4, §5

Tie2 = target: T34, Tie2 (Homo sapiens, UniProt Q02763)
T34 construct: purchased Millipore KinaseProfiler
Procedure: as §1, §2, §3, §4, §5

TrkA = target: T35, TrkA (Homo sapiens, UniProt P04629)
T35 construct: purchased Millipore KinaseProfiler
Procedure: as §1, §2, §3, §4, §5

cKit = target: T36, cKit (Homo sapiens, UniProt P10721)
T36 construct: purchased Millipore KinaseProfiler
Procedure: as §1, §2, §3, §4, §5

mTOR = target: T37, mTOR (Homo sapiens, UniProt P42345)
T37 construct: purchased Millipore KinaseProfiler
Procedure: as §1, §2, §3, §4, §5

mTOR/FKBP12 = target: T38, mTOR/FKBP12 (Homo sapiens, UniProt P42345)
T38 construct: purchased Millipore KinaseProfiler
Procedure: as §1, §2, §3, §4, §5

Kinase activity (% of control) (AMPK α1): 101 % of control | Kinase activity (% of control) (ASK1): 107 % of control | Kinase activity (% of control) (Abl): 130 % of control | Kinase activity (% of control) (Aurora-A): 73 % of control | Kinase activity (% of control) (BTK): 121 % of control | Kinase activity (% of control) (CDK1/cyclinB): 97 % of control | Kinase activity (% of control) (CHK1): 74 % of control | Kinase activity (% of control) (CK1(y)): 64 % of control | Kinase activity (% of control) (FAK): 99 % of control | Kinase activity (% of control) (Flt1): 99 % of control | Kinase activity (% of control) (Fyn): 97 % of control | Kinase activity (% of control) (GSK3 α): 94 % of control | Kinase activity (% of control) (IKK α): 95 % of control | Kinase activity (% of control) (IR, activated): 111 % of control | Kinase activity (% of control) (Itk): 106 % of control | Kinase activity (% of control) (JAK2): 109 % of control | Kinase activity (% of control) (LKB1): 66 % of control | Kinase activity (% of control) (Lck activated): 89 % of control | Kinase activity (% of control) (MAPK1): 81 % of control | Kinase activity (% of control) (MEK1): 109 % of control | Kinase activity (% of control) (Met): 113 % of control | Kinase activity (% of control) (NEK11): 95 % of control | Kinase activity (% of control) (PAK2): 100 % of control | Kinase activity (% of control) (PDK1): 94 % of control | Kinase activity (% of control) (PEK): 105 % of control | Kinase activity (% of control) (PKA): 106 % of control | Kinase activity (% of control) (PKC α): 96 % of control | Kinase activity (% of control) (Pim-1): 88 % of control | Kinase activity (% of control) (Plk1): 100 % of control | Kinase activity (% of control) (ROCK-I): 93 % of control | Kinase activity (% of control) (Ret): 125 % of control | Kinase activity (% of control) (Ron): 111 % of control | Kinase activity (% of control) (Rsk1): 88 % of control | Kinase activity (% of control) (SAPK2a(T106M)): 102 % of control | Kinase activity (% of control) (Tie2): 88 % of control | Kinase activity (% of control) (TrkA): 101 % of control | Kinase activity (% of control) (cKit): 104 % of control | Kinase activity (% of control) (mTOR): 47 % of control | Kinase activity (% of control) (mTOR/FKBP12): 48 % of control
Compound: O=C(N1CCCC1)N1CCC(n2cnc3c(-n4c(C(F)F)nc5ccccc54)nc(N4CCOCC4)nc32)CC1 [X-370]
